Test results taken from publication PMC6895199, “A new antiviral scaffold for human norovirus identified with computer-aided approaches on the viral polymerase” (Scientific Reports, 2019).
Where two headings read alike, the source gives them in different places.

System: HuNoV GI.1 replicon
Assay: HuNoV GI replicon assay (HGT-NV cells, qRT-PCR)
Assay type: cell-based, human norovirus GI.1
Method: Given that in this system the gene encoding for the major capsid protein is replaced by a neomycin resistance gene, no new virus particles will be produced but the non-structural proteins are expressed and the replication of the genomic RNA can be studied.
Cells and virus: MNV (virus strain MNV-1.CW1) was propagated in RAW 264.7 cells grown in DMEM (Life Technologies, Gent, Belgium) supplemented with 10% or 2% FBS, 2 mM L-glutamine, 20 mM HEPES, 0.075 g/L sodium bicarbonate, 1 mM sodium pyruvate, 100 U penicillin/mL and 100 µg/mL streptomycin at 37 °C in a humidified atmosphere of 5% CO2. The human norovirus GI.1 replicon harboring gastric tumor-1 cell line (HGT-NV) (kindly provided by Dr. Ian Goodfellow, University of Cambridge) was maintained in DMEM supplemented with 10% FBS, 2mM L-glutamine, 0.075 g/L sodium bicarbonate and 1.0 mg/ml of Geneticin (G418; Life Technologies), at 37 °C in a humidified atmosphere of 5% CO2[34].
Antiviral assay with the HGT-NV replicon: The inhibitory effect of Compounds on human norovirus replication was assessed by quantification of the levels of HuNoV GI replicon RNA and of the reference (housekeeping) gene β-actin mRNA [by quantitative reverse transcription polymerase chain reaction (qRT-PCR)]. To this end, HGT cells (2000 cells/well) were seeded in 96-well plates, in complete DMEM without the selection marker G418. Following an incubation period of 24 h, a serial dilution of rupintrivir was added to the cultures. After 72 h of incubation, cell monolayers were washed with phosphate-buffered saline (PBS) and collected for quantification of RNA load by qRT-PCR. Intracellular RNA was extracted from cells using the cell-to-cDNA lysis buffer (Ambion, Life Technologies). For detection of HuNoV GI replicon RNA, forward (5′-CCG GCT ACC TGC CCA TTC-3′), reverse (5′-CCAGATCATCCTGATCGACAAG-3′) primers and probe (5′-FAM-ACATCGCATCGAGCGAGCACGTAC-TAMRA-3′) for the neomycin gene were used. For detection of β-actin mRNA, forward (5′-GGCATCCACGAAACTACCTT-3′), reverse (5′-AGCACTGTGTTGGCGTACAG-3′) primers and probe (5′-HEX-ATCATGAAGTGTGACGTGGACATCCG-BHQ1–3′) were used. One-step qRT-PCR was performed in a 20 µL reaction mixture containing 10 µl 2X iTaq Universal SYBR® Green one step reaction mix (Bio-rad, California, USA), 5.17 µl RNAse free water, 0.5 µl of iScript reverse transcriptase (Bio-rad, California, USA), 4 µl of the template RNA and either 300 nM of HuNoV GI replicon primers and probe, 300 nM of β-actin primers and 200 nM of probe. Cycling conditions were: reverse transcription at 50 °C for 10 min, initial denaturation at 95 °C for 3 min, followed by 40 cycles of denaturation at 95 °C for 15 s, annealing and extension at 60 °C for 30 seconds (Roche Lightcycler®96, Roche Diagnostics, Belgium). To determine the relative expression levels of HuNoV GI replicon RNA, β-actin was used as a normalizer and ratios were calculated using the Pfaffl method. The Expression Ratio (HuNoV GI Replicon/β-actin) was calculated as: Expression Ratio = (E HuNoV)^ΔCT, HuNoV (CC – TC)/(Eβ-actin)^ΔCT, β-actin (CC – TC), where E HuNoV and Eβ-actin represent the amplification efficiency (E = 10^–1/slope) for the HuNoV GI replicon and β-actin qRT-PCR reactions, respectively. ΔCT, HuNoV (CC – TC) is the Ct of untreated control cells (CC) minus the Ct of cells treated with a compound concentration (TC) obtained with HuNoV GI replicon primers and probe. ΔCT, β-actin (CC – TC) is the Ct of untreated control cells (CC) minus the Ct of cells treated with a compound concentration (TC) obtained with β-actin primers and probe. Efficiency values (E HuNoV and Eβ-actin) were determined for each qRT-PCR reaction.

[1] = HuNoV GI replicon in HGT-1 cells, 72 h, replicon RNA by qRT-PCR
[2] = Norwalk virus, HGT-1, 72 h, read-out: EC50 values (column head printed 'M'), HuNoV GI replicon in HGT-1 cells, replicon RNA by qRT-PCR

| SMILES | EC50 values (column head printed 'M') [1] | EC50 [2] | EC50 (read-out: EC50 values (column head printed 'M'), HuNoV GI replicon in HGT-1 cells, 72 h, replicon RNA by qRT-PCR) |
| --- | --- | --- | --- |
| O=C(NC(=S)Nc1ccc(N2CCN(C(=O)c3nccs3)CC2)cc1)c1sc2ccccc2c1Cl [Compound 56, 3-Chloro-N-((4-(4-(thiazole-2-carbonyl)piperazin-1-yl)phenyl)carbamothioyl)benzo[b]thiophene-2-carboxamide] | do not display any significant antiviral activity | > 100 µM | – |
| O=C(NC(=S)Nc1ccc(N2CCN(C(=O)c3cccs3)CC2)cc1)c1sc2ccccc2c1Cl [Compound 48, 3-Chloro-N-((4-(4-(thiophene-2-carbonyl)piperazin-1-yl)phenyl)carbamothioyl)benzo[b]thiophene-2-carboxamide, reference compound] | do not display any significant antiviral activity | > 100 µM | – |
| Cc1ccc(C(=O)NC(=S)Nc2ccc(N3CCN(C(=O)c4cccs4)CC3)cc2)cc1 [Compound 52, 4-Methyl-N-((4-(4-(thiophene-2-carbonyl)piperazin-1-yl)phenyl)carbamothioyl)benzamide] | low micromolar range | 6 µM | 6.1 ± 3.9 µM |
